Test results from patent US20120225909A1, “INDAZOLE ANALOG” (priority 2009, published 2012).
Like-named read-outs stand apart in the source and are kept apart here.

Legend:
[1] = target: T1, human β1-adrenergic receptor (Homo sapiens, UniProt P08588); test: Test Case 2-B: human β1-adrenergic receptor agonist activity; format: cell-based; conditions: read-out: β1 receptor I.A.
T1 construct: expressed in transfected cells; host or cells: CHO (Chinese hamster ovary) cells, pcDNA3
Method: Measurement of Human β1-Adrenergic Receptor Agonist Activity
The human β1-adrenergic receptor agonist activity is measured by the same method as in Test Case 1-B using CHO (Chinese hamster ovary) cells transfected by a human β1 gene inserted in pcDNA3 (Invitrogen).

[2] = test system: common marmoset isolated bladder smooth muscle; test: Test Case 7: common marmoset isolated bladder smooth muscle relaxation test; conditions: KCl 40 mmol/L contracted marmoset bladder, papaverine 10^−4 mol/L relaxation = 100%
Method: Common Marmoset Isolated Bladder Smooth Muscle Relaxation Test
After sacrificing common marmosets (Japan CLEA) by exsanguination, they are laparotomized and the urinary bladder is removed. […] The specimens are loaded with one gram of resting tension and stabilized for 30 or more minutes. After the resting tension of the specimen has stabilized, a final concentration of 40 mmol/L of KCl is added repeatedly, and it is confirmed that the contraction in response to KCl has basically become constant. […] Taking that relaxation response as 100%, the relaxation rate (%) at test compound concentrations of […] is calculated.

[3] = test system: pentobarbital-anesthetized rats; test: Test Case 9: effects on the blood pressure and heart rate in pentobarbital-anesthetized rats; format: in vivo, rat; conditions: anesthetized male SD rats; 3 mg/kg intravenous over 30 seconds; maximum change, mean±standard deviation
Method: Effects on the blood pressure and heart rate in pentobarbital-anesthetized rats
The blood pressure and heart rate of rats under pentobarbital anesthesia are measured, and the effects of rapid intravenous administration of the test compound on the blood pressure and heart rate can be studied. After anesthetizing male SD rats (Japan SLC) by intraperitoneal administration of 50 mg/kg of pentobarbital sodium (Tokyo Chemical Industry Co., Ltd.), 25 mg/kg of pentobarbital sodium is administered subcutaneously as maintenance anesthesia. The left femoral vein is exposed and stripped, and a SP10 polyethylene tube filled with saline (connected to a three-way stopcock via a ¼ venous needle) is inserted and left in place in the vein.
The inside of the left thigh is cut, and the femoral artery is exposed and stripped. A polyethylene tube filled with heparinized physiological saline solution (SP31, connected to a three-way stopcock via a Terumo injection needle 22G) is inserted and connected to a pressure transducer. The blood pressure is measured from the pressure transducer via a strain pressure amplifier (AP-641G, Nihon Kohden). The heart rate is measured with the pulse wave of the blood pressure as a trigger via a heart rate counter (AT-601G, Nihon Kohden). The blood pressure, mean blood pressure, and heart rate are output to a recorder and recorded. Furthermore, the mean blood pressure is recorded via the strain pressure amplifier (AP-641G) using the formula {[…]}.
Specifically, 3 mg/mL of test compound is administered rapidly at a volume of 1 mL/kg. The relative value (%) of the values at each point in time versus the mean blood pressure and heart rate before beginning administration are determined for each individual, and the mean±standard deviation of the relative value (%) at the time of the maximum change in each parameter is determined.

[4] = test system: Male C57BL/6 Cr mice; test: Test Case 10: mouse piloerection test; format: in vivo; conditions: 10 mg/kg i.v.
[5] = target: T2, human α1A-adrenergic receptor (Homo sapiens, UniProt P35348); test: Test Case 4-A: human α1A-adrenergic receptor agonist activity (HEK293, Ca flux, Fura-2); format: cell-based; design: expressed in transfected cells; host or cells: HEK293 cells, pcDNA3.1
T2 sequence (P35348 1-466): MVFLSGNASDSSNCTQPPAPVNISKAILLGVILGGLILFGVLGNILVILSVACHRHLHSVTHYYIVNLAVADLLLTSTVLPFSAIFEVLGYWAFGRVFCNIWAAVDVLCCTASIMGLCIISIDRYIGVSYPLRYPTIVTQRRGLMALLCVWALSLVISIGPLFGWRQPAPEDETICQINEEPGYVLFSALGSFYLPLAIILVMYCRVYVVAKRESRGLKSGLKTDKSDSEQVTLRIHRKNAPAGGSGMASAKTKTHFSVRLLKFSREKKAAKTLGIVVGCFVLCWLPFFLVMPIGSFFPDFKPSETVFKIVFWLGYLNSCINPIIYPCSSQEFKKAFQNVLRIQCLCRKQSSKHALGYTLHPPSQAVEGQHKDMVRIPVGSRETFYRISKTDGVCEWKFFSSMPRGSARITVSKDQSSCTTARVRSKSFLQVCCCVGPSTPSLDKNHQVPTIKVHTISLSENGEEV
Method in brief: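 Fura-2AM-loaded HEK293 cells transfected with human α1A were preincubated for 180 s. Compound (sample plate 10^−5 to 10^−12 M) was added after ~30 s of 340/380 nm excitation ratio reading (500 nm emission, 2-s intervals), followed by 270 s more reading. Ca flux is the peak height: maximum ratio after addition minus the pre-addition ratio.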

[6] = HEK293; read-out: α1A receptor I.A.

T1 sequence (P08588 whole entry): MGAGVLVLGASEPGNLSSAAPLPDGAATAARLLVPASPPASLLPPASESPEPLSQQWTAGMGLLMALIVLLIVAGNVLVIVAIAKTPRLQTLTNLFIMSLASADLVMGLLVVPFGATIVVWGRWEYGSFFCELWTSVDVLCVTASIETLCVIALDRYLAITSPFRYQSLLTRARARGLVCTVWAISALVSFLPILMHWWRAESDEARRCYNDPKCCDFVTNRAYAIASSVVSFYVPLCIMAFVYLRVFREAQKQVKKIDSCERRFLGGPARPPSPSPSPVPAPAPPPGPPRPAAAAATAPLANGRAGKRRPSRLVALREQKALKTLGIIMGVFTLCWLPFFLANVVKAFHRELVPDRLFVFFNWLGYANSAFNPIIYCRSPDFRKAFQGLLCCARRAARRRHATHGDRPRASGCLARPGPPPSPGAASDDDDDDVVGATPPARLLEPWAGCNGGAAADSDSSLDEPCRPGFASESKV

| SMILES | Emax [1] [%] | relaxant activity (%) 10^−4M [2] [%] | relaxant activity (%) 10^−5M [2] [%] | increase in MBP (%) [3] [%] | number of experimental animals matching Score 0 (no piloerection) ([4]; n=4, observation time 5 min) | number of experimental animals matching Score 0 (no piloerection) ([4]; n=4, observation time 15 min) | number of experimental animals matching Score 0 (no piloerection) ([4]; n=4, observation time 30 min) | number of experimental animals matching Score 0.5 ([4]; n=4, observation time 30 min) | number of experimental animals matching Score 0 (no piloerection) ([4]; n=4, observation time 60 min) | number of experimental animals matching Score 0.5 ([4]; n=4, observation time 60 min) | Emax [5, 6] [%] | number of experimental animals matching Score 0.5 ([4]; n=4, observation time 15 min) | Emax ([5]; HEK293, read-out: α1A receptor I.A.) [%] |
| --- | --- | --- | --- | --- | --- | --- | --- | --- | --- | --- | --- | --- | --- |
| O=S(=O)(Nc1cccc([C@@H](O)CNCCOc2ccc3c(OC(F)F)n[nH]c3c2)c1)C1CC1 [ex4, (R)—N-(3-(2-(2-(3-(difluoromethoxy)-indazol-6-yloxy)ethylamino)-1-hydroxyethyl)phenyl)cyclopropanesulfonamide] | 2 | 53.7 | 30.1 | 2.4 ± 2.2 | 4 | 4 | 3 | 1 | 3 | 1 | 0 | – | – |
| Cc1n[nH]c2cc(OCCNC[C@H](O)c3cccc(NS(=O)(=O)c4ccccc4F)c3)ccc12 [ex235, (R)-2-fluoro-N-(3-(1-hydroxy-2-(2-(3-methylindazol-6-yloxy)ethylamino)ethyl)phenyl)benzenesulfonamide] | 16 | 55.3 | 24.3 | 3.4 ± 1.0 | 4 | 4 | 4 | – | 4 | – | 0 | – | – |
| Cc1n[nH]c2cc(OCCNC[C@H](O)c3cccc(NS(=O)(=O)C4CCC4)c3)ccc12 [ex3, (R)—N-(3-(1-hydroxy-2-(2-(3-methylindazol-6-yloxy)ethylamino)ethyl)phenyl)cyclobutanesulfonamide] | 4 | 63.2 | 36.6 | 2.0 ± 1.6 | 4 | 3 | 3 | 1 | 4 | – | – | 1 | 0 |
